Earlier results as cited in patent US8697106B2, “Coating composition” (SurModics, Inc., priority 2006, dated 2014).

How the values were obtained:
[1] = system-wide (systemic) concentration
bacteria = settings: effective systemic concentration

NC[C@H]1O[C@H](O[C@H]2[C@H](O)[C@@H](O[C@H]3O[C@H](CO)[C@@H](O)[C@H](N)[C@H]3O)[C@H](N)C[C@@H]2N)[C@H](N)C[C@@H]1O [tobramycin]
system-wide toxic concentration [1]: about 400 mcg/ml | effective concentration to actively control bacteria (bacteria): ≤ 4 µg/mL
